Experimental data: patent US6509328B1, “Glutamate receptor antagonists” (Hoffmann-La Roche Inc., priority 1999, dated 2003)

Which melting point does the source give for `O=C1CC(c2cccc(C(F)(F)F)c2)=Nc2ccc(-c3ccccc3)cc2N1` [Example 32, 8-Phenyl-4-(3-trifluoromethyl-phenyl)-1,3-dihydro-benzo [b][1,4]diazepin-2-one] here?
Its melting point is 210 °C (dec.).

For `CS(=O)(=O)N1CC=C(C#Cc2ccc3c(c2)NC(=O)CC(c2cccc(C#N)c2)=N3)CC1` [Example 142, 3-[7-(1-Methanesulfonyl-1,2,3,6-tetrahydro-pyridin-4-ylethynyl)-4-oxo-4,5-dihydro-3H-benzo[b][1,4]diazepin-2-yl]-benzonitrile], which melting point is on record?
The melting point was 235 °C.

For `N#Cc1ccc(-c2ccc3c(c2)NC(=O)CC(c2cccc(C#N)c2)=N3)cc1` [Example 65, 3-[7-(4-Cyano-phenyl)-4-oxo-4,5-dihydro-3H-benzo [b][1,4]diazepin-2-yl]-benzonitrile], which melting point is on record?
Its melting point is 240 °C (dec.).

With `N#Cc1cccc(C2=Nc3ccc(C#CC4=CC(=O)CCC4)cc3NC(=O)C2)c1` [Example 144, 3-[4-Oxo-7-(3-oxo-cyclohex-1-enylethynyl)-4,5-dihydro-3H-benzo [b][1,4]diazepin-2-yl]-benzonitrile] as the compound, how does the melting point read?
Its melting point is 110 °C.

Which melting point does the source give for `N#Cc1cccc(C2=Nc3ccc(-c4cccc(F)c4)cc3NC(=O)C2)c1` [Example 96, 3-[7-(3-Fluoro-phenyl)-4-oxo-4,5-dihydro-3H-benzo [b][1,4]diazepin-2-yl]-benzonitrile] here?
Its melting point is 232 to 235 °C.

For `Cc1nnc(-c2cccc(C3=Nc4ccc(-c5ccc(F)cc5)cc4NC(=O)C3)c2)o1` [Example 165, 8-(4-Fluoro-phenyl)-4-[3-(5-methyl-[1,3,4]oxadiazol-2-yl)-phenyl]-1,3-dihydro-benzo[b][1,4]diazepin-2-one], which melting point is on record?
Its melting point is 254 to 256 °C (dec.).

With `CC(=O)N1CC=C(C#Cc2ccc3c(c2)NC(=O)CC(c2cccc(C#N)c2)=N3)CC1` [Example 141, 3-[7-(1-Acetyl-1,2,3,6-tetrahydro-pyridin-4-ylethynyl)-4-oxo-4,5-dihydro-3H-benzo[b][1,4]diazepin-2-yl]-benzonitrile] as the compound, how does the melting point read?
The melting point was 203 °C.

For `O=C1CC(c2cccc(I)c2)=Nc2ccc(C#Cc3ccccc3)cc2N1` [Example 11, 4-(3-Iodo-phenyl)-8-phenylethynyl-1,3-dihydro-benzo[b][1,4]diazepin-2-one], which melting point is on record?
Its melting point is 227 to 229 °C (dec.).

With `COc1cccc(-c2ccc3c(c2)NC(=O)CC(c2cccc(C#N)c2)=N3)c1` [Example 39, 3-[7-(3-Methoxy-phenyl)-4-oxo-4,5-dihydro-3H-benzo [b][1,4]diazepin-2-yl]-benzonitrile] as the compound, how does the melting point read?
The melting point was 240 to 243 °C (dec.).

Which melting point does the source give for `O=C1CC(c2cccc(C(F)(F)F)c2)=Nc2ccc(-c3ccc(OCc4ccccc4)nc3)cc2N1` [Example 42, 8-(6-Benzyloxy-pyridin-3-yl)-4-(3-trifluoromethyl-phenyl)-1,3-dihydro-benzo [b][1,4]diazepin-2-one] here?
The melting point was 195 °C (dec.).

With `CCOC(=O)c1csc(-c2cc(C3=Nc4ccc(-c5ccc(F)cc5)cc4NC(=O)C3)ccn2)n1` [Example 155, 2-{4-[7-(4-Fluoro-phenyl)-4-oxo-4,5-dihydro-3H-benzo[b][1,4]diazepin-2-yl]-pyridin-2-yl}-thiazole-4-carboxylic Acid Ethyl Ester] as the compound, how does the melting point read?
Its melting point is 238 to 240 °C (dec.).

With `N#Cc1cccc(C2=Nc3ccc(-c4ccncc4)cc3NC(=O)C2)c1` [Example 44, 3-(4-Oxo-7-pyridin-4-yl-4,5-dihydro-3H-benzo[b][1,4]diazepin-2-yl)-benzonitrile] as the compound, how does the melting point read?
The melting point was > 200 °C (dec.).

For `N#Cc1ccc(C2=Nc3ccc(-c4ccccc4F)cc3NC(=O)C2)s1` [Example 100, 5-[7-(2-Fluoro-phenyl)-4-oxo-4,5-dihydro-3H-benzo [b][1,4]diazepin-2-yl]-thiophene-2-carbonitrile], which melting point is on record?
Its melting point is over 250 °C.

For `COc1ccc(-c2ccc3c(c2)NC(=O)CC(c2cccc(-n4ccnc4)c2)=N3)cc1` [Example 61, 4-(3-Imidazol-1-yl-phenyl)-8-(4-methoxy-phenyl)-1,3-dihydro-benzo [b][1,4]diazepin-2-one], which melting point is on record?
Its melting point is 207 to 208 °C.
